In ChEMBL document CHEMBL5033999, “Eriodictyol-Amplified 67-kDa Laminin Receptor Signaling Potentiates the Antiallergic Effect of O-Methylated Catechin” (J Nat Prod, 2021) one finds inhibition data, which are given here for four compounds.

Active and inactive are the calls of the source. No cut-off for these calls is given here.

Assay [1] concerns RBL-2H3. In words: Inhibition of mast cell degranulation in rat RBL-2H3 cells assessed as induction of ASM activation at 1 to 25 uM incubated for 3 hrs measured by TLC analyses. The note with it: dose 1-25 µM. It is filed as functional, cell-based.
Assay [2] concerns RBL-2H3. In words: Inhibition of DNP-HAS-stimulated mast cell degranulation in rat RBL-2H3 cells assessed as reduction in beta-hexosaminidase release at 1 to 25 uM incubated for 3 hrs followed by DNP-HAS stimulation for 1 hr. It is filed as functional, cell-based. Conditions: dose 1-25 µM.
The test system of assay [3] is RBL-2H3. In words: Inhibition of mast cell degranulation in rat RBL-2H3 cells assessed as induction of ASM activation pre-treated with anti-67LR antibody for 3 hrs followed by compound treatment at 25 uM for 3 hrs. The assay is classed as functional, cell-based.
The subject of assay [4] is RBL-2H3. In words: Inhibition of mast cell degranulation in rat RBL-2H3 cells assessed as reduction in beta-hexosaminidase release pre-treated with 5 uM ASM-specific inhibitor desipramine for 3 hrs followed by compound treatment at 25 uM for 3 hrs. The assay is classed as functional, cell-based.
In assay [5] the test system is RBL-2H3. The experiment in a line: Inhibition of DNP-HAS-stimulated mast cell degranulation in rat RBL-2H3 cells assessed as reduction in beta-hexosaminidase release pre-treated with 5 uM sGC inhibitor NS2028 for 1 hr followed by compound treatment at 25 uM for 3 hrs. The assay is classed as functional, cell-based.
Assay [6] has as its system RBL-2H3. In words: Inhibition of DNP-HAS-stimulated mast cell degranulation in rat RBL-2H3 cells assessed as reduction in beta-hexosaminidase release at 0.5 uM. It is filed as functional, cell-based.
Assay [7] deals with RBL-2H3. The experiment in a line: Inhibition of DNP-HAS-stimulated mast cell degranulation in rat RBL-2H3 cells assessed as reduction in beta-hexosaminidase release at 0.5 uM in presence of 0.1 uM eriodictyol. The assay is classed as functional, cell-based.
The subject of assay [8] is RBL-2H3. In words: Inhibition of DNP-HAS-stimulated mast cell degranulation in rat RBL-2H3 cells assessed as induction of ASM activation at 0.5 uM. It is filed as functional, cell-based.
Assay [9] concerns RBL-2H3. The experiment in a line: Inhibition of DNP-HAS-stimulated mast cell degranulation in rat RBL-2H3 cells assessed as induction of ASM activation at 0.5 uM in presence of 0.1 uM eriodictyol. It is filed as functional, cell-based.
Assay [10] concerns RBL-2H3. In words: Inhibition of DNP-HAS-stimulated mast cell degranulation in rat RBL-2H3 cells assessed as reduction in beta-hexosaminidase release at 0.01 to 1 uM. The assay is classed as functional, cell-based. Conditions: dose 0.01-1 µM.
Assay [11] deals with RBL-2H3. In words: Inhibition of DNP-HAS-stimulated mast cell degranulation in rat RBL-2H3 cells assessed as reduction in beta-hexosaminidase release at 0.1 uM. It is filed as functional, cell-based.
Assay [12] relates to RBL-2H3. The experiment in a line: Inhibition of DNP-HAS-stimulated mast cell degranulation in rat RBL-2H3 cells assessed as induction of ASM activation at 0.1 uM. It is filed as functional, cell-based.
In assay [13] the test system is RBL-2H3. In words: Inhibition of DNP-HAS-stimulated mast cell degranulation in rat RBL-2H3 cells assessed as reduction in beta-hexosaminidase release at 1 uM incubated for 3 hrs. The assay is classed as functional, cell-based.
In another assay the test system is Mus musculus. In words: Inhibition of IgE/Ag-mediated immediate hypersensitivity reaction in BALB/c mouse assessed as change in the level of skin extravasation at 0 to 4 mg/kg, po administered 1 hr prior to Ag challenge. It is filed as functional, organism-based. The note with it: dose 0-4 mg/kg.

Regarding `COc1cc(C(=O)O[C@@H]2Cc3c(O)cc(O)cc3O[C@@H]2c2cc(O)c(O)c(O)c2)cc(O)c1O`, the inhibition result with RBL-2H3 [1], in the assay on RBL-2H3 [2], in the assay with RBL-2H3 [7] and in the assay with RBL-2H3 [9] was “Active” each time. In addition, the inhibition entry in the assay with RBL-2H3 [3], with RBL-2H3 [4], in the assay with RBL-2H3 [5], in the assay with RBL-2H3 [6] and in the assay on RBL-2H3 [8] was “inactive” each time.
With `O=C1C[C@@H](c2ccc(O)c(O)c2)Oc2cc(O)cc(O)c21`, the inhibition entry with RBL-2H3 [10], in the assay with RBL-2H3 [11] and with RBL-2H3 [12] was “inactive” throughout.
Regarding `Nc1nc(-c2nn(Cc3ccccc3F)c3ncccc23)ncc1C1CC1`, in the assay on RBL-2H3 [13], the inhibition result is “Active”.
For the compound `O=C1C[C@@H](c2ccc(O)c(O)c2)Oc2cc(O[C@@H]3O[C@H](CO)[C@@H](O)[C@H](O)[C@H]3O)cc(O)c21`, the inhibition entry in the assay on Mus musculus is “inactive”.
